# In PMC10067623, “Characterization of an Aplysia vasotocin signaling system and actions of posttranslational modifications and individual residues of the ligand on receptor activity” (Frontiers in Pharmacology, 2023):
# Where “and” joins values, the source holds several entries; their conditions need not be identical. Equal values may be shown once. Entries after “also recorded” stand apart in the source; their conditions may differ. Read-outs that look alike come from different tables or passages of the source. Bridge positions count the residues as written; N and C are the ends. Peptide text beside a SMILES is read from it. * marks the point of attachment. Acm = CC(=O)NC*
# Tests used:
# Class-A GPCR 3 = assay: IP1 accumulation assay, Class-A GPCR 3 co-transfected with promiscuous Gαq (Gα16) in CHO-K1 cells; assay type: cell-based, Aplysia californica
# apVTR2 = assay: IP1 accumulation assay, apVTR2 transiently expressed in CHO-K1 cells; assay type: cell-based, Aplysia californica; settings: for apVTR2 log[EC50]: log[EC50] with negative sign as printed, average
# apVTR1 = target: T1, apVTR1 (Aplysia californica, UniProt A0ABM1ABB6); assay: cell-based; assay type: cell-based; settings: for activation of apVTR1 (IP1 response), in words / apVTR1 log[EC50]: CHO-K1 cells, without promiscuous Gαq; for apVTR1 log[EC50]: log[EC50] with negative sign as printed, average, n = 3
# T1 sequence (A0ABM1ABB6 1-470): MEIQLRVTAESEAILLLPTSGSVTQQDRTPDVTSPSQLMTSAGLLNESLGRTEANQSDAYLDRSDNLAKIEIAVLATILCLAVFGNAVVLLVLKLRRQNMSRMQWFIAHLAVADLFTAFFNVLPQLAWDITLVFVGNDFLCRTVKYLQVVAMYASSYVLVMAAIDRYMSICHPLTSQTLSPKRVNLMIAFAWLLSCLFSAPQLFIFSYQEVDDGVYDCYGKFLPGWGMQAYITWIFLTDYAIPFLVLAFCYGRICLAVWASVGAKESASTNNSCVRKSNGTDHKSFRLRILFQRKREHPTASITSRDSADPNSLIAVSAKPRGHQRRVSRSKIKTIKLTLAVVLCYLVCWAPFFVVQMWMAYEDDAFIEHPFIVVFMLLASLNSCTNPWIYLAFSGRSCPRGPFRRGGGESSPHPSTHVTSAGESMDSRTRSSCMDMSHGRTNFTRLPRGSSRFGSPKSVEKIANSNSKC
# [1] = co-transfected with promiscuous Gαq (Gα16), 10^-5 M vs 10^-10 M
# [2] = CHO-K1 cells, without promiscuous Gαq, dose-response 10^-12 M to 10^-4 M, n = 3
# [3] = n = 3, CHO-K1 cells, without promiscuous Gαq
# [4] = CHO-K1 cells, without promiscuous Gαq
# [5] = co-transfected with promiscuous Gαq, 10^-5 M vs 10^-10 M (control)
Compound,"activation of Class-A GPCR 3 (IP1 response), in words (Class-A GPCR 3; [1])",apVTR2 log[EC50] (apVTR2; [3]) [M],EC50 (apVTR1; apVTR1 EC50) [µM],EC50 (apVTR1; apVTR1 log[EC50]) [µM],EC50 (apVTR2),also measured
"CC(C)[C@@H]1NC(=O)[C@H](Cc2ccccc2)NC(=O)[C@@H](N)CSSC[C@@H](C(=O)N2CCC[C@H]2C(=O)N[C@H](C(=O)NCC(N)=O)[C@@H](C)O)NC(=O)[C@H](CC(N)=O)NC(=O)[C@H](CCCNC(=N)N)NC1=O [Annetocin, reference compound] (H-CFVRNCPTG-NH2; disulfide 1-6)",do not affect; also recorded: none of the four peptides had any effects,-6.0±0.20,5.6,6.31,,EC50 (apVTR2; [2]): 1.1 µM
"CC[C@H](C)[C@@H]1NC(=O)[C@H](Cc2ccc(O)cc2)NC(=O)[C@@H](N)CSSC[C@@H](C(=O)N2CCC[C@H]2C(=O)N[C@@H](CC(C)C)C(=O)NCC(N)=O)NC(=O)[C@H](CC(N)=O)NC(=O)[C@H](CCC(N)=O)NC1=O [Oxytocin, reference compound]",do not affect; also recorded: none of the four peptides had any effects,-5.4±0.016,16,15.8,,"activation of apVTR2 (IP1 response), in words (apVTR2; [4]): weak activation effect; EC50 (apVTR2; [2]): 3.6 µM; activation of apVTR1 (IP1 response), in words (apVTR1): weak activation effect"
C[C@@H]1NC(=O)[C@H](Cc2ccccc2)NC(=O)[C@@H](N)CSSC[C@@H](C(=O)N2CCC[C@H]2C(=O)N[C@@H](CCCCN)C(=O)NCC(N)=O)NC(=O)[C@H](CC(N)=O)NC(=O)[C@H](CCCNC(=N)N)NC1=O [[Ala^3]apVT] (H-CFARNCPKG-NH2; disulfide 1-6),,,30,31.6,,
CC[C@H](C)[C@@H]1NC(=O)[C@H](Cc2ccccc2)NC(=O)[C@@H](N)CSSC[C@@H](C(=O)N2CCC[C@H]2C(=O)N[C@@H](CCCCN)C(=O)NCC(N)=O)NC(=O)[C@H](C)NC(=O)[C@H](CCCNC(=N)N)NC1=O [[Ala^5]apVT] (H-CFIRACPKG-NH2; disulfide 1-6),,,6,6.31,,
CC[C@H](C)[C@@H]1NC(=O)[C@H](Cc2ccccc2)NC(=O)[C@@H](N)CSSC[C@@H](C(=O)N[C@@H](C)C(=O)N[C@@H](CCCCN)C(=O)NCC(N)=O)NC(=O)[C@H](CC(N)=O)NC(=O)[C@H](CCCNC(=N)N)NC1=O [[Ala^7]apVT] (H-CFIRNCAKG-NH2; disulfide 1-6),,,1.1,1,,
CC[C@H](C)[C@@H]1NC(=O)[C@H](Cc2ccccc2)NC(=O)[C@@H](N)CSSC[C@@H](C(=O)N2CCC[C@H]2C(=O)N[C@@H](C)C(=O)NCC(N)=O)NC(=O)[C@H](CC(N)=O)NC(=O)[C@H](CCCNC(=N)N)NC1=O [[Ala^8]apVT] (H-CFIRNCPAG-NH2; disulfide 1-6),,,1.5,1.58,,
CC[C@H](C)[C@@H]1NC(=O)[C@H](Cc2ccccc2)NC(=O)[C@@H](N)CSSC[C@@H](C(=O)N2CCC[C@H]2C(=O)N[C@@H](CCCCN)C(=O)N[C@@H](C)C(N)=O)NC(=O)[C@H](CC(N)=O)NC(=O)[C@H](CCCNC(=N)N)NC1=O [[Ala^9]apVT] (H-CFIRNCPKA-NH2; disulfide 1-6),,,1,1,,
"CC[C@H](C)[C@H](NC(=O)[C@H](Cc1ccccc1)NC(=O)[C@@H](N)CSCNC(C)=O)C(=O)N[C@@H](CCCNC(=N)N)C(=O)N[C@@H](CC(N)=O)C(=O)N[C@@H](CSCNC(C)=O)C(=O)N1CCC[C@H]1C(=O)N[C@@H](CCCCN)C(=O)NCC(N)=O [[Cys(Acm)^1,6]apVT] (H-C(Acm)FIRNC(Acm)PKG-NH2; N-terminus and C-terminus assumed)",,-4.3±0.57,12,12.6,47 µM,
CC[C@H](C)[C@H](NC(=O)[C@H](Cc1ccccc1)NC(=O)[C@@H](N)CSCNC(C)=O)C(=O)N[C@@H](CCCNC(=N)N)C(=O)N[C@@H](CC(N)=O)C(=O)N[C@@H](CS)C(=O)N1CCC[C@H]1C(=O)N[C@@H](CCCCN)C(=O)NCC(N)=O [[Cys(Acm)^1]apVT] (H-C(Acm)FIRNCPKG-NH2; N-terminus assumed),,-5.1±0.21,2.9,3.16,7.8 µM,
CC[C@H](C)[C@H](NC(=O)[C@H](Cc1ccccc1)NC(=O)[C@@H](N)CS)C(=O)N[C@@H](CCCNC(=N)N)C(=O)N[C@@H](CC(N)=O)C(=O)N[C@@H](CSCNC(C)=O)C(=O)N1CCC[C@H]1C(=O)N[C@@H](CCCCN)C(=O)NCC(N)=O [[Cys(Acm)^6]apVT] (H-CFIRNC(Acm)PKG-NH2; N-terminus assumed),,-5.1±0.21,1.5,1.58,7.8 µM,
CC[C@H](C)[C@H](NC(=O)[C@H](Cc1ccccc1)NC(=O)[C@@H](N)CS)C(=O)N[C@@H](CCCNC(=N)N)C(=O)N[C@@H](CC(N)=O)C(=O)N[C@@H](CS)C(=O)N1CCC[C@H]1C(=O)N[C@@H](CCCCN)C(=O)NCC(=O)O [apVT'-OH] (H-CFIRNCPKG-OH; N-terminus assumed),,-5.6±0.18,2.2,2,2.2 µM,
"CC[C@H](C)[C@@H]1NC(=O)[C@H](Cc2ccccc2)NC(=O)[C@@H](N)CSSC[C@@H](C(=O)N2CCC[C@H]2C(=O)N[C@@H](CCCCN)C(=O)NCC(N)=O)NC(=O)[C@H](CC(N)=O)NC(=O)[C@H](CCCNC(=N)N)NC1=O [apVT, Aplysia vasotocin] (H-CFIRNCPKG-NH2; disulfide 1-6; N-terminus assumed)",,-7.1±0.18,0.07,,0.077 µM and 0.07 µM,"activation of Class-A GPCR 3 (IP1 response), in words (Class-A GPCR 3): no response; also recorded: not responsive; screening of apVTR2 activation (IP1 response), in words (apVTR2; [5]): responded; apVTR2 log[EC50] (apVTR2; n = 3, CHO-K1 cells, without promiscuous Gαq, listed as apVT'): -7.2±0.15 M; apVTR1 EC50 (apVTR1): 0.065 µM; screening of apVTR1 activation (IP1 response), in words (apVTR1; [5]): responded; apVTR1 log[EC50] (apVTR1): -7.2±0.036 M; apVTR1 log[EC50] (apVTR1; listed as apVT'): -7.2±0.07 M"
CC[C@H](C)[C@@H]1NC(=O)[C@H](Cc2ccccc2)NC(=O)[C@@H](N)CSSC[C@@H](C(=O)N2CCC[C@H]2C(=O)N[C@@H](CCCCN)C(=O)NCC(=O)O)NC(=O)[C@H](CC(N)=O)NC(=O)[C@H](CCCNC(=N)N)NC1=O [apVT-OH] (H-CFIRNCPKG-OH; disulfide 1-6; N-terminus assumed),,-6.0±0.06,3.5,3.16,1 µM,
AstC,not responsive to any of these,,,,,
Urotensin II,not responsive to any of these,,,,,
Vasopressin [reference compound],none of the four peptides had any effects,,,,,"activation of Class-A GPCR 3 (IP1 response), in words (Class-A GPCR 3; co-transfected with promiscuous Gαq (Gα16), 10^-5 M vs 10^-10 M, listed as Vasopressin): do not affect; activation of apVTR2 (IP1 response), in words (apVTR2; [4]): no effects; activation of apVTR1 (IP1 response), in words (apVTR1): no effects"
